Reference: patent US12448399B2, “Cereblon-based KRAS degrading PROTACs and uses related thereto” (Arvinas Operations, Inc., priority 2023, dated 2025)

Biological target: T1, KRas-G12D (Homo sapiens, UniProt P01116, G12D)
T1 construct: insert the HiBiT tag onto the N-terminus of one or more of the endogenous KRas alleles; host or cells: AsPC-1 HiBiT-KRasG12D knock-in clone (one tagged allele, two untagged KRasG12D alleles)
Test: HiBiT Degradation Assay (G12D), AsPC-1 HiBiT-KRasG12D cells, 24 hr
Assay type: cell-based
Settings: for Dmax: ASPC1, AsPC-1 cells, maximum degradation observed; for DC50: AsPC-1 cells
Outline: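 Degradation was read after 24 hr compound exposure (0.5% DMSO, 37° C) by Nano-Glo HiBiT lytic luminescence in AsPC-1 cells carrying a HiBiT tag on one of three KRasG12D alleles. Signal relative to DMSO gave DC50 and Dmax by 4-parameter fit; alamar blue fluorescence monitored cytotoxicity.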

T1 sequence (P01116 1-188 isoform P01116-2 G12D): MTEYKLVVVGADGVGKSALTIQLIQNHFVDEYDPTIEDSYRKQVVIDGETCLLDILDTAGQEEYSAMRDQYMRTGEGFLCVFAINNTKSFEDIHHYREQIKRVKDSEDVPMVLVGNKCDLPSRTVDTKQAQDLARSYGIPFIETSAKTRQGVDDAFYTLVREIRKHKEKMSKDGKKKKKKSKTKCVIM

| Compound | Dmax | DC50 |
| --- | --- | --- |
| C#Cc1c(F)ccc2cc(O)cc(-c3ncc4c(N5CC6CCC(C5)N6)nc(OC[C@@H]5C[C@@H](OC6CCN(CC7CCN(c8cc(F)c9c(c8F)n(C)c(=O)n9C8CCC(=O)NC8=O)CC7)CC6)CN5C)nc4c3F)c12 (stereo partly drawn) [Compound 201, 3-(5-{4-[(4-{[(3R,5S)-5-{[(4-{3,8-diazabicyclo[3.2.1]octan-3-yl}-7-(8-ethynyl-7-fluoro-3-hydroxynaphthalen-1-yl)-8-fluoropyrido[4,3-d]pyrimidin-2-yl)oxy]methyl}-1-methylpyrrolidin-3-yl]oxy}piperidin-1-yl)methyl]piperidin-1-yl}-4,7-difluoro-3-methyl-2-oxo-2,3-dihydro-1H-1,3-benzodiazol-1-yl)piperidine-2,6-dione] | > 70% | < 5.1 µM |
| C#Cc1c(F)ccc2cc(O)cc(-c3ncc4c(N5CC6CCC(C5)N6)nc(OCCN5CCC6(CC5)CCN(CC5CCN(c7cccc8c7CN(C7CCC(=O)NC7=O)C8=O)CC5)CC6)nc4c3F)c12 (stereo not drawn) [Compound 132, 3-(4-{4-[(9-{2-[(4-{3,8-diazabicyclo[3.2.1]octan-3-yl}-7-(8-ethynyl-7-fluoro-3-hydroxynaphthalen-1-yl)-8-fluoropyrido[4,3-d]pyrimidin-2-yl)oxy]ethyl}-3,9-diazaspiro[5.5]undecan-3-yl)methyl]piperidin-1-yl}-1-oxo-2,3-dihydro-1H-isoindol-2-yl)piperidine-2,6-dione] | > 70% | < 5.1 µM |
| CCc1c(F)ccc2cc(O)cc(-c3ncc4c(N5CC6CCC(C5)N6)nc(OC[C@@H]5C[C@@H](OC6CCN(CC7CCN(c8ccc9c(c8Cl)CN(C8CCC(=O)NC8=O)C9=O)CC7)CC6)CN5C)nc4c3F)c12 (stereo partly drawn) [Compound 177, 3-(4-chloro-5-{4-[(4-{[(3R,5S)-5-{[(4-{3,8-diazabicyclo[3.2.1]octan-3-yl}-7-(8-ethyl-7-fluoro-3-hydroxynaphthalen-1-yl)-8-fluoropyrido[4,3-d]pyrimidin-2-yl)oxy]methyl}-1-methylpyrrolidin-3-yl]oxy}piperidin-1-yl)methyl]piperidin-1-yl}-1-oxo-2,3-dihydro-1H-isoindol-2-yl)piperidine-2,6-dione] | > 70% | < 5.1 µM |
| C#Cc1c(F)ccc2cc(O)cc(-c3ncc4c(N5CC6CCC(C5)N6)nc(OCCN5CCC(CC6CCN(CC7CCN(c8ccc9c(c8)C(=O)N(C8CCC(=O)NC8=O)C9)CC7)CC6)CC5)nc4c3F)c12 (stereo not drawn) [Compound 110, 3-{6-[4-({4-[(1-{2-[(4-{3,8-diazabicyclo[3.2.1]octan-3-yl}-7-(8-ethynyl-7-fluoro-3-hydroxynaphthalen-1-yl)-8-fluoropyrido[4,3-d]pyrimidin-2-yl)oxy]ethyl}piperidin-4-yl)methyl]piperidin-1-yl}methyl)piperidin-1-yl]-1-oxo-2,3-dihydro-1H-isoindol-2-yl}piperidine-2,6-dione] | > 70% | < 5.1 µM |
| CCc1cccc2cc(O)cc(-c3ncc4c(N5CC6CCC(C5)N6)nc(OC[C@@]56CCCN5[C@H](COC(=O)N5CCN(c7cccc8c7C(=O)N(C7CCC(=O)NC7=O)C8=O)CC5)CC6)nc4c3F)c12 (stereo partly drawn) [Compound 64, [(3S,8S)-8-[[4-(3,8-diazabicyclo[3.2.1]octan-3-yl)-7-(8-ethyl-3-hydroxy-1-naphthyl)-8-fluoro-pyrido[4,3-d]pyrimidin-2-yl]oxymethyl]-1,2,3,5,6,7-hexahydropyrrolizin-3-yl]methyl 4-[2-(2,6-dioxo-3-piperidyl)-1,3-dioxo-isoindolin-4-yl]piperazine-1-carboxylate] | – | 0.1 to 5.25 µM |
| CCc1cccc2cc(O)cc(-c3ncc4c(N5CC6CCC(C5)N6)nc(OC[C@]56CCCN5[C@@H](COC(=O)N5CCN(c7ccc8c(c7)CN(C7CCC(=O)NC7=O)C8=O)CC5)CC6)nc4c3F)c12 (stereo partly drawn) [Compound 59, [(3R,8R)-8-[[4-(3,8-diazabicyclo[3.2.1]octan-3-yl)-7-(8-ethyl-3-hydroxy-1-naphthyl)-8-fluoro-pyrido[4,3-d]pyrimidin-2-yl]oxymethyl]-1,2,3,5,6,7-hexahydropyrrolizin-3-yl]methyl 4-[2-(2,6-dioxo-3-piperidyl)-1-oxo-isoindolin-5-yl]piperazine-1-carboxylate] | – | < 5.1 µM |
| CCc1cccc2cc(O)cc(-c3ncc4c(N5CC6CCC(C5)N6)nc(OCCN5CCC(CCCN6CCN(c7ccc8c(c7)C(=O)N(C7CCC(=O)NC7=O)C8=O)CC6)CC5)nc4c3F)c12 (stereo not drawn) [Compound 10] | – | 0.25 to 1 µM |
| C#Cc1c(F)ccc2cc(O)cc(-c3ncc4c(N5CC6CCC(C5)N6)nc(OCC5(CN6CCC7(CCN(CC8CCN(c9ccc%10c(c9)n(C)c(=O)n%10C9CCC(=O)NC9=O)CC8)CC7)CC6)CC5)nc4c3F)c12 (stereo not drawn) [Compound 193, 3-[5-[4-[[3-[[1-[[4-(3,8-diazabicyclo[3.2.1]octan-3-yl)-7-(8-ethynyl-7-fluoro-3-hydroxy-1-naphthyl)-8-fluoro-pyrido[4,3-d]pyrimidin-2-yl]oxymethyl]cyclopropyl]methyl]-3,9-diazaspiro[5.5]undecan-9-yl]methyl]-1-piperidyl]-3-methyl-2-oxo-benzimidazol-1-yl]piperidine-2,6-dione] | > 70% | < 5.1 µM |
| C#Cc1c(F)ccc2cccc(-c3ncc4c(N5CC6CCC(C5)N6)nc(OCCN5CCC(CC6CCN(CC7CCN(c8cccc9c8CN(C8CCC(=O)NC8=O)C9=O)CC7)CC6)CC5)nc4c3F)c12 (stereo not drawn) [Compound 157] | – | > 1 µM |
| CCc1c(F)ccc2cc(O)cc(-c3ncc4c(N5CC6CCC(C5)N6)nc(OCCN5CCC(CC6CCN(CC7CCN(c8ccc9c(c8)n(C(C)C)c(=O)n9C8CCC(=O)NC8=O)CC7)CC6)CC5)nc4c3F)c12 (stereo not drawn) [Compound 212, 3-{5-[4-({4-[(1-{2-[(4-{3,8-diazabicyclo[3.2.1]octan-3-yl}-7-(8-ethyl-7-fluoro-3-hydroxynaphthalen-1-yl)-8-fluoropyrido[4,3-d]pyrimidin-2-yl)oxy]ethyl}piperidin-4-yl)methyl]piperidin-1-yl}methyl)piperidin-1-yl]-2-oxo-3-(propan-2-yl)-2,3-dihydro-1H-1,3-benzodiazol-1-yl}piperidine-2,6-dione] | > 70% | < 5.1 µM |
| CCc1cccc2cc(O)cc(-c3ncc4c(N5CC6CCC(C5)N6)nc(OCCN5CCC(CN(C)[C@H]6C[C@H](Oc7ccc8c(c7)C(=O)N(C7CCC(=O)NC7=O)C8=O)C6)CC5)nc4c3F)c12 (stereo partly drawn) [Compound 11] | – | 0.25 to 1 µM |
| C#Cc1c(F)ccc2cc(O)cc(-c3ncc4c(N5CC6CCC(C5)N6)nc(OC[C@@H]5C[C@@H](OC6CCN(CC7CN(c8ccc9c(c8)CN(C8CCC(=O)NC8=O)C9=O)C7)CC6)CN5C)nc4c3F)c12 (stereo partly drawn) [Compound 164, 3-(5-{3-[(4-{[(3R,5S)-5-{[(4-{3,8-diazabicyclo[3.2.1]octan-3-yl}-7-(8-ethynyl-7-fluoro-3-hydroxynaphthalen-1-yl)-8-fluoropyrido[4,3-d]pyrimidin-2-yl)oxy]methyl}-1-methylpyrrolidin-3-yl]oxy}piperidin-1-yl)methyl]azetidin-1-yl}-1-oxo-2,3-dihydro-1H-isoindol-2-yl)piperidine-2,6-dione] | > 70% | < 5.1 µM |
| C#Cc1c(F)ccc2cc(O)cc(-c3ncc4c(N5CC6CCC(C5)N6)nc(OCC5(CN6CCC(CC7CCN(CC8CN(c9ccc%10c(c9)n(C)c(=O)n%10C9CCC(=O)NC9=O)C8)CC7)CC6)CC5)nc4c3F)c12 (stereo not drawn) [Compound 229, 3-[5-[3-[[4-[[1-[[1-[[4-(3,8-diazabicyclo[3.2.1]octan-3-yl)-7-(8-ethynyl-7-fluoro-3-hydroxy-1-naphthyl)-8-fluoro-pyrido[4,3-d]pyrimidin-2-yl]oxymethyl]cyclopropyl]methyl]-4-piperidyl]methyl]-1-piperidyl]methyl]azetidin-1-yl]-3-methyl-2-oxo-benzimidazol-1-yl]piperidine-2,6-dione] | > 70% | < 5.1 µM |
| C#Cc1c(F)ccc2cc(O)cc(-c3ncc4c(N5CC6CCC(C5)N6)nc(OCCN5CCC(CC6(F)CCN(CC7CCN(c8ccc9c(c8)CN(C8CCC(=O)NC8=O)C9=O)CC7)CC6)CC5)nc4c3F)c12 (stereo not drawn) [Compound 90, 3-{5-[4-({4-[(1-{2-[(4-{3,8-diazabicyclo[3.2.1]octan-3-yl}-7-(8-ethynyl-7-fluoro-3-hydroxynaphthalen-1-yl)-8-fluoropyrido[4,3-d]pyrimidin-2-yl)oxy]ethyl}piperidin-4-yl)methyl]-4-fluoropiperidin-1-yl}methyl)piperidin-1-yl]-1-oxo-2,3-dihydro-1H-isoindol-2-yl}piperidine-2,6-dione] | – | > 1 µM |
| CCc1cccc2cc(O)cc(-c3ncc4c(N5CC6CCC(C5)N6)nc(OCCN5CCC6(CC5)CCN(CC5CCN(c7ccc8c(c7)C(=O)N(C7CCC(=O)NC7=O)C8=O)CC5)CC6)nc4c3F)c12 (stereo not drawn) [Compound 25] | – | < 5.1 µM |
| CCc1cccc2cc(O)cc(-c3ncc4c(N5CC6CCC(C5)N6)nc(OCCN5CCC(CN6CCC7(CC6)CCN(c6ccc8c(c6)C(=O)N(C6CCC(=O)NC6=O)C8=O)CC7)CC5)nc4c3F)c12 (stereo not drawn) [Compound 22] | – | 0.1 to 5.25 µM |
| C#Cc1c(F)ccc2cc(O)cc(-c3ncc4c(N5CC6CCC(C5)N6)nc(OCCN5CCC(CN6CC7(CCN(c8cccc9c8CN(C8CCC(=O)NC8=O)C9=O)CC7)C6)CC5)nc4c3F)c12 (stereo not drawn) [Compound 140, 3-(4-{2-[(1-{2-[(4-{3,8-diazabicyclo[3.2.1]octan-3-yl}-7-(8-ethynyl-7-fluoro-3-hydroxynaphthalen-1-yl)-8-fluoropyrido[4,3-d]pyrimidin-2-yl)oxy]ethyl}piperidin-4-yl)methyl]-2,7-diazaspiro[3.5]nonan-7-yl}-1-oxo-2,3-dihydro-1H-isoindol-2-yl)piperidine-2,6-dione] | – | 0.25 to 1 µM |
| CCc1cccc2cc(O)cc(-c3ncc4c(N5CC6CCC(C5)N6)nc(OCCN5CCC(CN6CC7(CCN(c8ccc9c(c8)CN(C8CCC(=O)NC8=O)C9=O)CC7)C6)CC5)nc4c3F)c12 (stereo not drawn) [Compound 2] | > 70% | < 5.1 µM |
